Here are results for eight compounds from ChEMBL document CHEMBL1201862, “PubChem BioAssay data set” (2004).

What all share (test): growth of human tumour cells (NCI), 48 h
In test [1] the test system is SF-295.
The subject of test [2] is SR.
For test [3], the system named is NCI-H23.
In test [4] the test system is HCT-15.
Test [5] concerns SK-OV-3.
Test [6] concerns NCI-H522.
The test system of test [7] is CCRF-CEM.
In test [8] the test system is UO-31.
In test [9] the test system is OVCAR-3.
Test [10] deals with SK-MEL-28.
Test [11] relates to SNB-19.
For test [12], the system named is HT-29.
Test [13] has as its system CAKI-1.
The test system of test [14] is SK-MEL-2.
For test [15], the system named is TK-10.
Test [16] relates to SF-539.
In test [17] the test system is NCI-H460.
The test system of test [18] is LOX IMVI.
For test [19], the system named is UACC-62.
The subject of test [20] is MOLT-4.

Each structure is given as a SMILES string.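 96-well plates; 48 h exposure; 5 concentrations. Endpoints by linear interpolation between flanking doses. Not reached: highest tested concentration assigned. GI50 marks 50% less growth.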 Active and inactive are the calls of the source. No stated cut-off is given here; in the data, active = GI50 up to about 1.1 µM and inactive = higher.

Consider `Nc1nc(Cl)cc(NCCCCCCCCNc2cc(Cl)nc(N)n2)n1`, for which the GI50 in test [1] was 1.48 µM (inactive); in test [2], 3.61 µM (inactive); in [3], 1.22 µM (inactive); in test [4] it was 8.59 µM; in [5], > 100 µM (inactive); in test [6], 1.13 µM (inactive). For the same compound, the GI50 in test [7] is 73.3 µM (inactive); in [8], 22 µM (inactive); in test [9], 3.2 µM (inactive); in test [10], 31.8 µM (inactive); in test [11], > 100 µM (inactive); in test [12], 12.3 µM (inactive). Besides, the GI50 was 8.81 µM (inactive) in test [13]; 13.5 µM (inactive) in test [14]; 14.9 µM (inactive) in test [15]; 28.7 µM (inactive) in test [16]; 31.3 µM (inactive) in test [17]; 3.82 µM (inactive) in test [18]. In addition, the GI50 in test [19] is 1.36 µM (inactive).
For the compound `COc1ccc2nc(N/N=C/c3ccc(C)s3)cc(C)c2c1`, the GI50 in test [1] was 16.9 µM (inactive); in test [2], 25.4 µM (inactive); in [3] it was 13.5 µM (inactive); in test [4], 7.96 µM; in test [5] it was 22.9 µM (inactive); in test [6], 39.7 µM (inactive). Besides, the GI50 in test [7] was 28.1 µM (inactive); in test [8], 17.7 µM (inactive); in test [9], 19.6 µM (inactive); in test [10], 26.5 µM (inactive); in test [11], 17.3 µM (inactive); in test [12], 6.08 µM (inactive). Besides, the GI50 in [13] was 23 µM (inactive); in [14], 21.7 µM (inactive); in test [15] it was 21.6 µM (inactive); in test [16], 16.5 µM (inactive); in test [18] it was 16.3 µM (inactive); in [19] it was 16.8 µM (inactive). Also, the GI50 in [20] is 12.9 µM (inactive).
For `CCN1C(=O)C(C)S/C1=N\NC(=O)CSc1nc2ccccc2c(=O)n1CC` (centres undefined), the GI50 in test [1] is > 100 µM (inactive); in [2], > 100 µM (inactive); in test [3], > 100 µM (inactive); in test [4] it was above 100 µM; in test [5] it was > 100 µM (inactive); in [6], > 100 µM (inactive). The GI50 in test [7] is > 100 µM (inactive); in [8], 72.9 µM (inactive); in test [9] it was > 100 µM (inactive); in test [10], > 100 µM (inactive); in test [11], > 100 µM (inactive); in test [13], > 100 µM (inactive). In addition, the GI50 was > 100 µM (inactive) in [14]; > 100 µM (inactive) in test [15]; > 100 µM (inactive) in [16]; 3.12 µM (inactive) in [17]; > 100 µM (inactive) in [18]; > 100 µM (inactive) in test [19]. Also, in [20], the GI50 is > 100 µM (inactive).
Take `Nc1ccc(SC23CC4CC(CC(C4)C2)C3)cc1`: the GI50 in [1] was 92.7 µM (inactive); in test [2], > 100 µM (inactive); in test [3], > 100 µM (inactive); in test [4] it was above 100 µM; in test [5], > 100 µM (inactive); in test [6], > 100 µM (inactive). Besides, the GI50 in test [7], in test [8], in test [9], in [10], in test [11] and in test [12] was > 100 µM (inactive) throughout. Besides, the GI50 in [13], in test [14], in test [15], in [16], in test [17] and in test [18] was > 100 µM (inactive) each time. Also, the GI50 in [19] is > 100 µM (inactive).
In the case of `O=c1c2ccccc2[nH]c2c(Cl)cc(Cl)c(NC3CCCCC3)c12`, the GI50 in test [1] is 24.2 µM (inactive); in test [2] it was 12 µM (inactive); in [3] it was 17 µM (inactive); in test [4], 30.1 µM; in [5], 32.2 µM (inactive); in test [6] it was 20.1 µM (inactive). For the same compound, the GI50 is > 10 µM (inactive) in test [7]; 15.3 µM (inactive) in test [8]; 14.2 µM (inactive) in test [9]; 27 µM (inactive) in [10]; 13.2 µM (inactive) in test [11]; 16.3 µM (inactive) in test [12]. In addition, the GI50 is 31.5 µM (inactive) in [13]; 16.8 µM (inactive) in test [14]; 22.2 µM (inactive) in [15]; 23.2 µM (inactive) in test [16]; 36.5 µM (inactive) in [18]; 16.6 µM (inactive) in test [19]. Besides, the GI50 in test [20] was 23 µM (inactive).
Consider `O=C(O)C(NCc1ccccc1)C(NCc1ccccc1)C(=O)O` (centres undefined), for which the GI50 is > 100 µM (inactive) in [1]; > 100 µM (inactive) in test [2]; > 100 µM (inactive) in test [3]; above 100 µM in test [4]; > 100 µM (inactive) in test [5]; > 100 µM (inactive) in test [6]. Besides, the GI50 in test [7], in test [8], in test [9], in test [10], in [11] and in [12] was > 100 µM (inactive) each time. The GI50 in test [13], in test [14], in test [15], in test [16], in test [17] and in [18] was > 100 µM (inactive) in each case. Moreover, the GI50 in [19] and in [20] was > 100 µM (inactive) each time.
With `CC(C)SC1SCC2C(=O)N(C)C3(CC3C)C(=O)OCC(NC(=O)c3nc4ccccc4cc3O)C(=O)NC(C)C(=O)N(C)C1C(=O)N(C)C1(CC1C)C(=O)OCC(NC(=O)c1nc3ccccc3cc1O)C(=O)NC(C)C(=O)N2C` (centres undefined), the GI50 in test [1] is < 0.0001 µM (active); in test [2], < 0.0001 µM (active); in test [3], < 0.0001 µM (active); in [4] it was below 0.0001 µM; in [5], < 0.0001 µM (active); in test [6] it was < 0.0001 µM (active). Besides, the GI50 in test [7], in [8], in [9], in test [10], in test [11] and in [12] was < 0.0001 µM (active) throughout. Also, the GI50 in [13], in test [14], in test [15], in test [16], in [17] and in test [18] was < 0.0001 µM (active) each time. Also, the GI50 in [19] and in test [20] was < 0.0001 µM (active) each time.
As for `O=C1CCCC/C1=C\c1ccc([N+](=O)[O-])cc1`, the GI50 was 18.2 µM (inactive) in [1]; 20.2 µM (inactive) in test [2]; 24 µM (inactive) in test [3]; 17.2 µM (inactive) in test [5]; 11 µM (inactive) in test [6]; 2.91 µM (inactive) in test [7]. Also, the GI50 is 19.3 µM (inactive) in test [8]; 27.5 µM (inactive) in test [9]; 11.4 µM (inactive) in test [10]; 17.1 µM (inactive) in [11]; 37.3 µM (inactive) in test [12]; 18.5 µM (inactive) in [13]. For the same compound, the GI50 is 21.5 µM (inactive) in test [14]; 8.67 µM (inactive) in test [15]; 20.4 µM (inactive) in [16]; 35.4 µM (inactive) in test [17]; 1.79 µM (inactive) in test [18]; 16.7 µM (inactive) in test [19]. The GI50 in test [20] was 5.48 µM (inactive).
